# Counter-ions that a name gives are not always drawn.
# Target: T1, SCD (stearoyl-CoA desaturase), SCD-containing rat microsomes (Rattus norvegicus, UniProt P07308)
# T1 construct: SCD-containing rat microsomes (2 μg protein); from tissue
# T1 sequence (P07308 1-358): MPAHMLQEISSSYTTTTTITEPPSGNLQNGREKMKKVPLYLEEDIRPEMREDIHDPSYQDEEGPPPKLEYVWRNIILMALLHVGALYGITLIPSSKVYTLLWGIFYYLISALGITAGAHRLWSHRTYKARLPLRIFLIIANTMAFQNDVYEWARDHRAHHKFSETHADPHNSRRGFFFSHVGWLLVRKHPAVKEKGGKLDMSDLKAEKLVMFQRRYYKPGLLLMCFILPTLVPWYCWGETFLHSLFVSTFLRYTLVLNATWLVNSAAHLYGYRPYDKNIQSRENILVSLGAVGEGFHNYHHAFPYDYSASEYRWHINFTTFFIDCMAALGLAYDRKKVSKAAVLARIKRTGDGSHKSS
# Assay: in vitro assay for SCD activity based on production of [3H]H2O from [9,10-3H] stearoyl Coenzyme A
# Assay type: biochemical
# Conditions: SCD-containing rat microsomes (2 μg protein), substrate [9,10-3H] stearoyl Coenzyme A 1 μM, 5 minutes preincubation, 6 minutes incubation; read-out: average pIC50 value, in vitro assay for SCD activity (converted)
# Experimental: The compounds of the present invention may be analysed in vitro for SCD activity using an assay based on the production of [^3H]H2O, which is released during the enzyme-catalyzed generation of the monounsaturated fatty acyl CoA product. The assay is performed in a 96-well filtration plates. The titrated substrate used in the assay is the [9,10-^3H] stearoyl Coenzyme A. After incubation for 6 minutes of SCD-containing rat microsomes (2 μg protein) and substrate (1 μM), the labelled fatty acid acyl-CoA species and microsomes are absorbed with charcoal and separated from [^3H]H2O by centrifugation. The formation of [^3H]H2O is used as a measure of SCD activity. Compounds at concentrations starting at 10 μM to 0.1 nM or vehicle (DMSO) are preincubated for 5 minutes with the microsomes before addition of the substrate. The concentration-responses are fitted with sigmoidal curves to obtain IC50 values.
row,SMILES,IC50 [µM]
1,"O=C(Nc1cnn(Cc2ccccc2C(F)(F)F)c1)c1ccc2c(c1)CCNC2 [N-(1-{[2-(trifluoromethyl)phenyl]methyl}-1H-pyrazol-4-yl)-1,2,3,4-tetrahydro-6-isoquinolinecarboxamide hydrochloride]",3.16 to 10
2,"N#Cc1cccc(Cn2cc(NC(=O)c3ccc4c(c3)CCNC4)cn2)c1 [N-{1-[(3-cyanophenyl)methyl]-1H-pyrazol-4-yl}-1,2,3,4-tetrahydro-6-isoquinolinecarboxamide hydrochloride]",3.16 to 10
3,"CC(C)COc1ccc(Cl)cc1Cn1cc(NC(=O)c2ccc3c(c2)CCNC3)cn1 [N-[1-({5-chloro-2-[(2-methylpropyl)oxy]phenyl}methyl)-1H-pyrazol-4-yl]-1,2,3,4-tetrahydro-6-isoquinolinecarboxamide hydrochloride]",> 10
4,"CC(C)c1nn(Cc2ccc(Cl)c(Cl)c2)cc1C(=O)Nc1ccc2c(c1)CCNC2 [1-[(3,4-dichlorophenyl)methyl]-3-(1-methylethyl)-N-(1,2,3,4-tetrahydro-6-isoquinolinyl)-1H-pyrazole-4-carboxamide hydrochloride]",> 10
5,"O=C(Nc1ccc2c(c1)CCNC2)c1cnn(Cc2ccc(C(F)(F)F)cc2)c1 [N-(1,2,3,4-tetrahydro-6-isoquinolinyl)-1-{[4-(trifluoromethyl)phenyl]methyl}-1H-pyrazole-4-carboxamide hydrochloride]",> 10
6,"CC(C)c1ccc(Cn2cc(NC(=O)c3ccc4c(c3)CCN(C(=O)OC(C)(C)C)C4)cn2)cc1 [1,1-dimethylethyl 6-{[(1-{[4-(1-methylethyl)phenyl]methyl}-1H-pyrazol-4-yl)amino]carbonyl}-3,4-dihydro-2(1H)-isoquinolinecarboxylate]",> 10
7,"CC(C)c1ccc(Cn2cc(NC(=O)c3ccc4c(c3)CCNC4)cn2)cc1 [N-(1-{[4-(1-methylethyl)phenyl]methyl}-1H-pyrazol-4-yl)-1,2,3,4-tetrahydro-6-isoquinolinecarboxamide hydrochloride]",> 10
8,"O=C(Nc1cnn(COc2ccc(Cl)cc2)c1)c1ccc2c(c1)CCNC2 [N-(1-{[(4-chlorophenyl)oxy]methyl}-1H-pyrazol-4-yl)-1,2,3,4-tetrahydro-6-isoquinolinecarboxamide hydrochloride]",3.16 to 10
9,"O=C(Nc1cnn(Cc2ccccc2Cl)c1)c1ccc2c(c1)CCNC2 [Example 8, N-{1-[(2-chlorophenyl)methyl]-1H-pyrazol-4-yl}-1,2,3,4-tetrahydro-6-isoquinolinecarboxamide]",3.16 to 10

# Further lines, results first:
row,IC50 [µM],SMILES
1,3.16 to 10,"Cc1ccc(Cn2cc(NC(=O)c3ccc4c(c3)CCNC4)cn2)cc1 [Example 14, N-{1-[(4-methylphenyl)methyl]-1H-pyrazol-4-yl}-1,2,3,4-tetrahydro-6-isoquinolinecarboxamide]"
2,3.16 to 10,"O=C(Nc1ccc2c(c1)CCNC2)c1cnn(Cc2ccc(Cl)cc2)c1 [1-[(4-chlorophenyl)methyl]-N-(1,2,3,4-tetrahydro-6-isoquinolinyl)-1H-pyrazole-4-carboxamide hydrochloride]"
3,> 10,"CC(C)COc1ccc(Cl)cc1Cn1cc(NC(=O)c2ccc3c(c2)CCN(C(=O)OC(C)(C)C)C3)cn1 [1,1-dimethylethyl 6-({[1-({5-chloro-2-[(2-methylpropyl)oxy]phenyl}methyl)-1H-pyrazol-4-yl]amino}carbonyl)-3,4-dihydro-2(1H)-isoquinolinecarboxylate]"
4,3.16 to 10,"O=C(Nc1cnn(Cc2ccccc2)c1)c1ccc2c(c1)CCNC2 [N-[1-(phenylmethyl)-1H-pyrazol-4-yl]-1,2,3,4-tetrahydro-6-isoquinolinecarboxamide hydrochloride]"
5,> 10,"CC(C)c1c(C(=O)Nc2ccc3c(c2)CCNC3)cnn1Cc1ccc(Cl)c(Cl)c1 [1-[(3,4-dichlorophenyl)methyl]-5-(1-methylethyl)-N-(1,2,3,4-tetrahydro-6-isoquinolinyl)-1H-pyrazole-4-carboxamide hydrochloride]"

# Reference: patent US20100041696A1, “Compounds” (priority 2006, published 2010)
